In this assay the test system is Colo320DM. Kind of assay: Colo320DM cell viability. Format: cell-based, human. An excerpt:
In some embodiments, a polypeptide described herein inhibits binding of BLC9 to β-catenin when assessed in a cell-viability assay. In some embodiments, the cell-viability assay is a CellTiterGlo luminescent assay, wherein the viability of cells is quantitatively measured. Various cell lines, transformed cell lines or primary cells derived from a healthy subject or subject suffering from a disease can be used in this assay.

Where a SMILES comes first, the peptide text is derived from it. Bridges are numbered along the chain shown (N, C = ends). [ ]: non-standard residue; d: D form. 2Nal = N[C@@H](Cc1ccc2ccccc2c1)C(=O)O; NMeR = CN[C@@H](CCCNC(=N)N)C(=O)O; hArg = N=C(N)NCCCC[C@H](N)C(=O)O; NMeQ = CN[C@@H](CCC(N)=O)C(=O)O; Cha = N[C@@H](CC1CCCCC1)C(=O)O; Cba = N[C@@H](CC1CCC1)C(=O)O; S5 = C=CCCC[C@](C)(N)C(=O)O

One may read the IC50 as the concentration at which inhibition is half-maximal. Lower therefore signals greater potency in that assay. Take `CC[C@H](C)[C@@H]1NC(=O)[C@@](C)(NC(=O)[C@H](CCCNC(=N)N)NC(=O)[C@H](CC(C)C)NC(=O)[C@@H](NC(=O)[C@H](CCC(=O)O)NC(=O)[C@H](CC(C)C)NC(C)=O)[C@@H](C)O)CCCC=CCCC[C@@](C)(C(=O)N[C@@H](CC2CCC2)C(=O)N[C@@H](Cc2ccc3ccccc3c2)C(N)=O)NC(=O)[C@H](CCCNC(=N)N)NC(=O)[C@H](CCC(N)=O)NC1=O` [SEQ ID NO: 109, LETLRXIQRX(CBA)(2-Nal)] (Ac-LETLR[S5]IQR[S5][Cba][2Nal]-NH2; staple 6-10): the concentration for half-maximal inhibition (IC50) is greater than 5 µM.

The molecule `CC[C@H](C)[C@@H]1NC(=O)[C@@](C)(NC(=O)[C@H](CCCNC(=N)N)NC(=O)[C@H](CC(C)C)NC(=O)[C@@H](NC(=O)[C@H](CCC(N)=O)NC(=O)[C@H](CC(C)C)NC(=O)[C@H](CO)NC(=O)[C@H](CCCNC(=N)N)NC(=O)[C@H](CCC(=O)O)NC(=O)[C@H](CCC(N)=O)NC(=O)[C@H](Cc2c[nH]cn2)NC(C)=O)[C@@H](C)O)CCCC=CCCC[C@@](C)(C(=O)N[C@@H](CC(C)C)C(=O)N[C@@H](Cc2ccc3ccccc3c2)C(N)=O)NC(=O)[C@H](CCCNC(=N)N)NC(=O)[C@H](CCC(N)=O)NC1=O` [SEQ ID NO: 11, HQERSLQTLRXIQRXL(2-Nal)] (Ac-HQERSLQTLR[S5]IQR[S5]L[2Nal]-NH2; staple 11-15) showed an IC50 of 1.51 µM.

For the molecule `CC[C@H](C)[C@@H]1NC(=O)[C@@](C)(NC(=O)[C@H](CCCNC(=N)N)NC(=O)[C@H](CC(C)C)NC(=O)[C@@H](NC(=O)[C@H](CCC(N)=O)N(C)C(=O)[C@H](CC(C)C)NC(=O)[C@H](CO)NC(=O)[C@H](CCCNC(=N)N)NC(=O)[C@H](CCC(N)=O)N(C)C(=O)[C@H](CCCNC(=N)N)NC(=O)[C@H](Cc2c[nH]cn2)NC(C)=O)[C@@H](C)O)CCCC=CCCC[C@@](C)(C(=O)N[C@@H](CC2CCC2)C(=O)N[C@@H](Cc2ccc3ccccc3c2)C(N)=O)NC(=O)[C@H](CCCNC(=N)N)NC(=O)[C@H](CCC(N)=O)NC1=O` [SEQ ID NO: 155, HR(N-methylQ)RSL(N-methylQ)TLRXIQRX(CBA)(2-Nal)] (Ac-HR[NMeQ]RSL[NMeQ]TLR[S5]IQR[S5][Cba][2Nal]-NH2; staple 11-15), the IC50 came out at 2.15 µM.

On to `CC[C@H](C)[C@@H]1NC(=O)[C@@](C)(NC(=O)[C@H](CCCNC(=N)N)NC(=O)[C@H](CC(C)C)NC(=O)[C@@H](NC(=O)[C@H](CCC(N)=O)NC(=O)[C@H](CC(C)C)NC(=O)[C@H](CO)NC(=O)[C@H](CCCNC(=N)N)NC(=O)[C@H](CCC(N)=O)NC(=O)[C@H](CCCNC(=N)N)NC(=O)[C@H](Cc2c[nH]cn2)NC(C)=O)[C@@H](C)O)CCCC=CCCC[C@@](C)(C(=O)N[C@@H](CC2CCC2)C(=O)N[C@@H](Cc2ccc3ccccc3c2)C(N)=O)NC(=O)[C@H](CCCCNC(=N)N)NC(=O)[C@H](CCC(N)=O)NC1=O` [SEQ ID NO: 171, HRQRSLQTLRXIQ(homoR)X(CBA)(2-Nal)] (Ac-HRQRSLQTLR[S5]IQ[hArg][S5][Cba][2Nal]-NH2; staple 11-15), for which the concentration for half-maximal inhibition (IC50) was 4.76 µM.

`CC[C@H](C)[C@@H]1NC(=O)[C@@](C)(NC(=O)[C@H](CCCNC(=N)N)NC(=O)[C@H](CC(C)C)NC(=O)[C@]2(C)CCCC=CCCC[C@](C)(NC(=O)[C@H](CCC(=O)O)NC(=O)[C@H](CCCNC(=N)N)NC(C)=O)C(=O)N[C@@H](CO)C(=O)N[C@@H](CC(C)C)C(=O)N[C@@H](CCC(N)=O)C(=O)N2)CCCC=CCCC[C@@](C)(C(=O)N[C@@H](CC(C)C)C(=O)N[C@@H](Cc2ccc3ccccc3c2)C(N)=O)NC(=O)[C@H](CCCNC(=N)N)NC(=O)[C@H](CCC(N)=O)NC1=O` [SEQ ID NO: 39, REXSLQXLRZIQRZL(2-Nal)] (Ac-RE[S5]SLQ[S5]LR[S5]IQR[S5]L[2Nal]-NH2; staple 3-7, 10-14) showed a half-maximal inhibitory concentration (IC50) of 0.56 µM.

Turning to `CC[C@H](C)[C@@H]1NC(=O)[C@@](C)(NC(=O)[C@H](CCCNC(=N)N)NC(=O)[C@H](CC(C)C)NC(=O)[C@@H](NC(=O)[C@H](CCC(N)=O)NC(=O)[C@H](CC(C)C)NC(=O)[C@H](CO)NC(=O)[C@H](CCCNC(=N)N)N(C)C(=O)[C@H](CCC(N)=O)NC(=O)[C@H](CCCNC(=N)N)NC(=O)[C@H](Cc2c[nH]cn2)NC(C)=O)[C@@H](C)O)CCCC=CCCC[C@@](C)(C(=O)N[C@@H](CC2CCCCC2)C(=O)N[C@@H](Cc2ccc3ccccc3c2)C(N)=O)NC(=O)[C@H](CCCNC(=N)N)NC(=O)[C@H](CCC(N)=O)NC1=O` [SEQ ID NO: 184, HRQ(N-MeArg)SLQTLRXIQRX(Cha)(2-Nal)] (Ac-HRQ[NMeR]SLQTLR[S5]IQR[S5][Cha][2Nal]-NH2; staple 11-15), the IC50 is 2.43 µM.

`CC[C@H](C)[C@@H]1NC(=O)[C@@](C)(NC(=O)[C@H](CCCNC(=N)N)NC(=O)[C@H](CC(C)C)NC(=O)[C@@H](NC(=O)[C@H](CCC(N)=O)NC(=O)[C@H](CC(C)C)NC(=O)[C@H](CO)NC(=O)[C@H](CCCNC(=N)N)NC(=O)[C@H](CCC(=O)O)NC(=O)[C@H](CCCNC(=N)N)NC(=O)[C@H](Cc2c[nH]cn2)NC(C)=O)[C@@H](C)O)CCCC=CCCC[C@@](C)(C(=O)N[C@@H](CC(C)C)C(=O)N[C@@H](Cc2ccc3ccccc3c2)C(N)=O)NC(=O)[C@H](C)NC(=O)[C@H](CCC(N)=O)NC1=O` [SEQ ID NO: 28, HRERSLQTLRXIQAXL(2-Nal)] (Ac-HRERSLQTLR[S5]IQA[S5]L[2Nal]-NH2; staple 11-15) gave an IC50 of 3.24 µM.

As to `CC[C@H](C)[C@@H]1NC(=O)[C@@](C)(NC(=O)[C@H](CCCNC(=N)N)N(C)C(=O)[C@H](CC(C)C)NC(=O)[C@@H](NC(=O)[C@H](CCC(N)=O)NC(=O)[C@H](CC(C)C)NC(=O)[C@H](CO)NC(=O)[C@H](CCCNC(=N)N)NC(=O)[C@H](CCC(N)=O)NC(=O)[C@H](CCCNC(=N)N)NC(=O)[C@H](Cc2c[nH]cn2)NC(C)=O)[C@@H](C)O)CCCC=CCCC[C@@](C)(C(=O)N[C@@H](CC2CCCCC2)C(=O)N[C@@H](Cc2ccc3ccccc3c2)C(N)=O)NC(=O)[C@H](CCCNC(=N)N)NC(=O)[C@H](CCC(N)=O)NC1=O` [SEQ ID NO: 189, HRQRSLQTL(N-MeArg)XIQRX(Cha)(2-Nal)] (Ac-HRQRSLQTL[NMeR][S5]IQR[S5][Cha][2Nal]-NH2; staple 11-15), the 50% inhibitory concentration (IC50) came out at 3.25 µM.

`CC[C@H](C)[C@@H]1NC(=O)[C@@](C)(NC(=O)[C@H](CCCNC(=N)N)NC(=O)[C@H](CC(C)C)NC(=O)[C@@H](NC(=O)[C@H](CCC(N)=O)NC(=O)[C@H](CC(C)C)NC(=O)[C@H](CO)NC(=O)[C@H](CCCNC(=N)N)N(C)C(=O)[C@H](CCC(N)=O)NC(=O)[C@H](CCCNC(=N)N)NC(=O)[C@H](Cc2c[nH]cn2)NC(C)=O)[C@@H](C)O)CCCC=CCCC[C@@](C)(C(=O)N[C@@H](CC2CCC2)C(=O)N[C@@H](Cc2ccc3ccccc3c2)C(N)=O)NC(=O)[C@H](CCCNC(=N)N)NC(=O)[C@H](CCC(N)=O)NC1=O` [SEQ ID NO: 168, HRQ(N-methylR)SLQTLRXIQRX(CBA)(2-Nal)] (Ac-HRQ[NMeR]SLQTLR[S5]IQR[S5][Cba][2Nal]-NH2; staple 11-15; N-terminus and C-terminus assumed): the IC50 turned out to be 4.14 µM.

The values above are taken from patent publication US11591365B2, “BCL9 peptides and variants thereof” (WntRx Pharmaceuticals Inc., priority 2017, dated 2023).
